Reference: patent publication US20070149456A1, “Epithelial sodium channel inhibiting agents and uses therefor” (University of Pittsburgh, priority 2005, published 2007)
Several values for one entry are separate records, joined by “and”; a condition that tells them apart may be missing. Equal values may be shown once. Entries after “also recorded” stand apart in the source; their conditions may differ. Read-outs that look alike come from different tables or passages of the source.

Molecular target: T1, endogenous ENaC in HAE cells (Homo sapiens, UniProt P37088+P51168+P51170)
T1 construct: endogenous in cells; host or cells: primary human airway (bronchial) epithelial cells from transplant or donor lungs
T1 sequence (P37088 1-178): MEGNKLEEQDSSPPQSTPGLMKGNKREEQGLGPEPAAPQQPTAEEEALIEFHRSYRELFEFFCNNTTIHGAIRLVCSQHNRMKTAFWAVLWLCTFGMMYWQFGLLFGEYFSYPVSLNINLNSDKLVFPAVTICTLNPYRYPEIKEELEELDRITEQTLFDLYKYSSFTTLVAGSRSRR
T1 sequence (P37088 205-669): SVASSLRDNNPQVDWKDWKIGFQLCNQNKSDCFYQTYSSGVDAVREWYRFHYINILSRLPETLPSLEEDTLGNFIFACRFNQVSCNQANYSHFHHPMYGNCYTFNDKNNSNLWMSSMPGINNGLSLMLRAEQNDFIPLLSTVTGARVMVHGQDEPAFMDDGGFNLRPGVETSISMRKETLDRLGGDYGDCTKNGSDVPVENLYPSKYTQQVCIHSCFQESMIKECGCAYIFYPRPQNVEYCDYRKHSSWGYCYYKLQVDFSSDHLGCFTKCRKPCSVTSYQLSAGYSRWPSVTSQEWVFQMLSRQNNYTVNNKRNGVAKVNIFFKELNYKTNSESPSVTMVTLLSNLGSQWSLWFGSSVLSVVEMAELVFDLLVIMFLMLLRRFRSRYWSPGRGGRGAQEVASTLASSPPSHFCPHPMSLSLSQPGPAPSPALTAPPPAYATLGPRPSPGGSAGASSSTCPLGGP
T1 sequence (P51168 whole entry): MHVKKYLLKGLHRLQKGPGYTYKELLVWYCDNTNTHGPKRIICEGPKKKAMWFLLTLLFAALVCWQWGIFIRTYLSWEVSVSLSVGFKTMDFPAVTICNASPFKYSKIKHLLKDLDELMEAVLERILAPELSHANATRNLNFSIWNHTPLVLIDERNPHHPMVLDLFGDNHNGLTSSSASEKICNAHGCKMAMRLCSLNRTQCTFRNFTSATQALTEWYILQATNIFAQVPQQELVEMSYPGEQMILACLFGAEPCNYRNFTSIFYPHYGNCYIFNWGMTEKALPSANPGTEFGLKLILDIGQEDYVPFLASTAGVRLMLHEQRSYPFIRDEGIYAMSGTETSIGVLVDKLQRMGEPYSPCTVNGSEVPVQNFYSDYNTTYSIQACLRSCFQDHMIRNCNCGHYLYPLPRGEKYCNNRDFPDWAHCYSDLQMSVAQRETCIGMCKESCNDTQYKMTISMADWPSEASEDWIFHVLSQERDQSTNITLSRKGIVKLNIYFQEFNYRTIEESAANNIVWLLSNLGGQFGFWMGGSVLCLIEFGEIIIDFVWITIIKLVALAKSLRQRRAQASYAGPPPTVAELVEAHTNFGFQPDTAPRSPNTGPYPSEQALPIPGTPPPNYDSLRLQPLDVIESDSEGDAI
T1 sequence (P51170 1-138): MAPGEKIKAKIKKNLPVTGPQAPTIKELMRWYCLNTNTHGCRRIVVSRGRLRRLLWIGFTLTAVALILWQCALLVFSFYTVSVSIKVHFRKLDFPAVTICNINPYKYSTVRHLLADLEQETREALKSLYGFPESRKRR
T1 sequence (P51170 182-649): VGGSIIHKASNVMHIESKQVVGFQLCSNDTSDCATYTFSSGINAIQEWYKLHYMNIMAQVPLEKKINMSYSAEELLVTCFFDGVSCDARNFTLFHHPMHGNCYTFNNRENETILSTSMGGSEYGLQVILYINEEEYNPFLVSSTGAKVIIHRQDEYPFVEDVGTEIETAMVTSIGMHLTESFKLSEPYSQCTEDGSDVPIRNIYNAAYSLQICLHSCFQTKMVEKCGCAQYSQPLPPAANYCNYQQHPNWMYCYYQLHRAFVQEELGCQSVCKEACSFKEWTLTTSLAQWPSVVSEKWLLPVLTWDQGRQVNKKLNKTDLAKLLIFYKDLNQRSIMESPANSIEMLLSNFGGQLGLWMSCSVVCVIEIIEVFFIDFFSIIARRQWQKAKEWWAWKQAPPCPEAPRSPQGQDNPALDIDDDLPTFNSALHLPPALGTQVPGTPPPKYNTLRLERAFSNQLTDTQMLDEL
Assay: Amiloride-sensitive short circuit current in primary human airway epithelial (HAE) cell monolayers, Ussing chamber
Assay type: cell-based
Conditions: for inhibition of amiloride sensitive short circuit currents: HAE, increasing concentrations of peptide; for Ki: HBE cells
Text: Primary Cultures of HAE Cells—HAE cells were obtained from excess pathological tissue remaining after lung transplantation or from organ donor lungs deemed not suitable for transplantation under a protocol approved by the University of Pittsburgh […] Review Board. All cells were isolated from second through sixth generation bronchi and grown on permeable Transwell supports (Coming Inc.) as previously described (Devor, D. C., and Pilewski, J. M. (1999), UTP inhibits Na^+ absorption in wild-type and DeltaF508 CFTR-expressing human bronchial epithelia, Am. J. Physiol. 276, C827-C837 31. ).
Short Circuit Current Measurements—Cell culture inserts were mounted in modified Ussing chambers (Harvard Apparatus, Holliston, Mass.), and the monolayers were continuously short-circuited with a voltage/current clamp system (Physiologic Instruments, San Diego, Calif.). A 2-mV bipolar pulse was applied periodically to measure the resistance of the monolayer. As previously described by Bridges et al. (Bridges, R. J., Newton, B. B., Pilewski, J. M., Devor, D. C., Poll, C. T., and Hall, R. L. (2001), Na+ transport in normal and CF human bronchial epithelial cells is inhibited by BAY 39-9437, Am. J. Physiol. 281, L16-L23 32, Na^+ transport in normal and CF human bronchial epithelial cells is inhibited by BAY 39-9437), the bath solution contained (in mM) 120 NaCl, 25 NaHCO3, 3.3 KH2PO4, 0.8 K2HPO4, 1.2 MgCl2, 1.2 CaCl2, and 10 glucose. The pH of this solution was 7.4 when gassed with a mixture of 95% O2-5% CO2 at 37° C.
Primary cultures of HAE cells grown on permeable membrane supports and mounted in modified Ussing chambers were continuously short-circuited by a voltage clamp amplifier (Physiologic Instruments, San Diego, Calif.). Monolayers were exposed to increasing concentrations of either the γ-peptide (closed circles) or a scrambled peptide (open circles). […] (n=8-9).
Vectors and Cell Culture—Wild-type, C-terminal and double epitope tagged mouse ENaC subunit cDNAs were previously described (Hughey, R. P., Mueller, G. M., Bruns, J. B., Kinlough, C. L., Poland, P. A., Harkleroad, K. L., Carattino, M. D., and Kleyman, T. R. (2003) J Biol Chem 278, 37073-37082 and Ahn, Y. J., Brooker, D. R., Kosari, F., Harte, B. J., Li, J., Mackler, S. A., and Kleyman, T. R. (1999), Cloning and functional expression of the mouse epithelial sodium channel, Am J Physiol 277, F121-129). The γ subunit mutations were generated in pcDNA3.1 (+) using a standard two-step PCR method. A cDNA clone (IMAGE #: 3600399) encoding full length mouse prostasin was obtained from Open Biosystems (Huntsville, Ala.) and sub-cloned into pcDNA3.1 (+) (Invitrogen, Carlsbad, Calif.). MDCK type 1 cells were a gift from Barry M. Gumbiner (Memorial Sloan-Kettering Cancer Center, New York) and were cultured as previously described (Lavelle, J. P., Negrete, H. O., Poland, P. A., Kinlough, C. L., Meyers, S. D., Hughey, R. P., and Zeidel, M. L. (1997), Low permeabilities of MDCK cell monolayers: a model barrier epithelium, Am J Physiol 273, F67-75). CCD (mpkCCDc14) cells were a gift from Alain Vandewalle (Institut National de la Santéet de la Recherche Médicale, Paris, France) and were cultured as previously described (Bens, M., Vallet, V., Cluzeaud, F., Pascual-Letallec, L., Kahn, A., Rafestin-Oblin, M. E., Rossier, B. C., and Vandewalle, A. (1999) J Am Soc Nephrol 10, 923-934). HAE cells were isolated and cultured as described (Devor, D. C., Bridges, R. J., and Pilewski, J. M. (2000), Pharmacological modulation of ion transport across wild-type and DeltaF508 CFTR-expressing human bronchial epithelia, Am J Physiol Cell Physiol 279, C461-479). […]

With “Ac-EAGSMRSTWEGTPPRFLNLIPLLVFNENEKGKARDFFTGRKRK-NH2 [γ-43]” the IC50 (HAE primary cultures, nonlinear curve fitting, read-out: IC50, inhibition of short circuit currents) was 2 µM and 2 to 3 µM, the “inhibition of amiloride sensitive short circuit currents” value (listed as γ cleavage product) was “inhibited in a dose dependent manner” and the “inhibition of amiloride sensitive short circuit currents” value (listed as γ-peptide) was “potent inhibitor; also recorded: strong inhibition”. It also gave a Ki (stated jointly for HBE and mpkCCDc14, read-out: apparent Ki, inhibition of endogenous ENaC activity) of roughly 2 µM.
“Ac-DLRGALPHPLQRLRTPPPPNPARSAR-NH2 [α-26]” gave a Ki (stated jointly for HBE or mpkCCDc14, read-out: Ki, block of endogenous ENaC activity) of 50 to 100 µM.
